Values of other authors as cited in PMC4682187, “Fusarinine C, a novel siderophore‐based bifunctional chelator for radiolabeling with Gallium‐68” (Journal of Labelled Compounds & Radiopharmaceuticals, 2015).

How the values were obtained:
[1] = ^68Ga complex of TAFC
Source text: To evaluate this hypothesis, a RGD peptide targeting the ...

[2] = dilution of DFO; at nanomolar level (<50 nM) DFO does not act as a good chelating agent for gallium
Source text: Caraco et al. reported that dilution of DFO, an acyclic analogue of FSC, could cause the breakdown of the ^67Ga^3+–DFO complex.

Metabolic stability [1]	Stability of the complex on dilution [2]	Compound
excellent metabolic stabilities		CC(=O)NC1CCCN(O)C(=O)/C=C(/C)CCOC(=O)C(NC(C)=O)CCCN(O)C(=O)/C=C(/C)CCOC(=O)C(NC(C)=O)CCCN(O)C(=O)/C=C(/C)CCOC1=O (centres unmarked) [TAFC, triacetylfusarinine]
	breakdown	CC(=O)N(O)CCCCCNC(=O)CCC(=O)N(O)CCCCCNC(=O)CCC(=O)N(O)CCCCCN [^67Ga^3+–DFO complex, desferoxamine B, metal not drawn]
